Test results reported in paper PMC12806164, “Epithelial Heparan Sulfate Promotes Staphylococcus aureus Corneal Infection by Inhibiting Cathelicidins” (Proteoglycan research, 2025).
No end group written: not given here.

How the values were obtained:
[1] = system: CRAMP; assay: Alexa 647-CRAMP binding to fixed S. aureus, inhibition by glycosaminoglycans (flow cytometry); parameters: species or system mouse; settings: 0.5 μM Alexa 647-conjugated CRAMP
Protocol: Alexa 647-conjugated CRAMP (0.5 μM) was incubated with 2% paraformaldehyde-fixed Staphylococcus aureus USA300 without or with 5 μg/mL HP, HS, CS, DS, NDS-HP, 6ODS-HP, or 2ODS-HP for 1 h at room temperature. S. aureus-associated CRAMP fluorescence was analyzed by flow cytometry. Results are shown as % Alexa CRAMP binding (n = 3, ****p < 0.0001).
Alexa 647 fluorophore was conjugated to CRAMP using the Lightning-Link Rapid FluoProbes647H labeling kit following the manufacturer’s instructions. S. aureus USA300 fixed in 2% paraformaldehyde for 20 min was resuspended in 20 μL of phosphate buffer and incubated with 0.5 μM of Alexa 647-labeled CRAMP for 30 min at room temperature without or with glycosaminoglycans. Unbound Alexa 647-labeled CRAMP was removed by washing with phosphate buffer, and Alexa 647-labeled CRAMP bound to bacteria was assessed by flow cytometry.
(§1) Figure S1. A) CRAMP expression was measured in uninfected Wt corneas or Wt corneas isolated at 4 h post-S. aureus USA300 infection. Briefly, eyes were enucleated, corneas were dissected, and isolated corneas were incubated with 10 mg/ml dispase II overnight at 4°C to peel off the corneal epithelium. Total RNA was purified from the corneal epithelium, and 1 ng of total RNA was analyzed by qRT-PCR for CRAMP or β-actin expression (n = 3, **p < 0.01). […] Bacterial killing was measured by plating serial dilutions onto TSA plates and counting colonies the following day. Results are shown as % bacterial survival (n = 4). Figure S2. […] Bacterial killing (%) was enumerated by plating serial dilutions onto TSA plates and counting colonies the following day (n = 5). B) Effects of pre-incubating S. aureus with glycosaminoglycans on bacterial killing by cathelicidins were examined by incubating 500 cfu of USA300 without or with 5 μg/ml HS, HP, DS, or CS for 30 min at 37°C. Bacteria were washed three times with buffer, incubated with 0.5 μM CRAMP for 2 h at 37°C, and % bacterial killing was determined by plating serial dilutions of samples (n = 4). Figure S3. S. aureus USA300 stained with BaclightGreen was incubated with 0.5 μM CRAMP in the absence or presence of 5 μg/ml HP, NDS-HP, 2ODS-HP, 6ODS-HP, H, NS-H, or NS2OS-H for 30 min at room temperature. Bacteria were washed and incubated with 10 μg/ml propidium iodide for 15 min on ice. Images were captured with a fluorescence microscope (Zeiss Axiovert 40 CFL). Quantification of % dead bacteria (out of total bacteria in field) is shown at the bottom. Figure S4. Alexa 647-conjugated CRAMP (0.5 μM) was incubated with fixed S. aureus USA300 without or with 5 μg/ml of the indicated glycosaminoglycans and chemically-desulfated HP compounds for 1 h at room temperature. S. aureus-associated CRAMP fluorescence was analyzed by flow cytometry. Representative FACS density plots are shown where heparan compounds containing 2-O-sulfated motifs decreased Alexa CRAMP binding by over 79% compared to the control (No GAG), except for NDS-HP where the reduction was approximately 65%. Fig. S5. Relative mRNA levels of A) Ndst1 and B) Sdc1 in the corneal epithelium of Hs2st^fl/fl, Krt12Cre, and Hs2st^fl/fl/Krt12Cre mice (n = 3).

[2] = system: SMAP-29; assay: Inhibition by glycosaminoglycans of S. aureus killing by SMAP-29; assay type: cell-based, sheep; settings: 5 μg/mL glycosaminoglycan, 0.5 μM SMAP-29, ~500 cfu USA300, phosphate buffer pH 7.4, 2 h at 37°C, n = 6
Protocol: (§2) Samples were plated onto TSA plates, and viable bacteria (cfu) were counted the following day. Data are shown as % bacterial killing, where killing activity in the presence of cathelicidin only represents 100% (n = 6, *p < 0.05, ****p < 0.0001, one-way ANOVA, multiple comparisons).
(§3) (A) Schematics of HS/HP structure. […] (F) BaclightGreen-labeled S. aureus (~400 cfu) was incubated with 0.5 μM CRAMP without or with 5 μg/mL HP, NDS-HP, 2ODS-HP, 6ODS-HP, H, NS-H, or NS2OS-H for 30 min at room temperature. Bacteria were washed, incubated with 10 μg/mL propidium iodide for 15 min at 4°C, and live (green) and dead (red) bacteria were visualized by fluorescence microscopy.
(§4) Late log phase S. aureus USA300 was washed with phosphate buffer (8.2 mM Na2HPO4, 1.8 mM KH2PO4, pH 7.4) and approximately 500 cfu were incubated with cathelicidins with or without excess GAGs for 2 h at 37°C as indicated. Viable bacteria were enumerated by plating onto TSA plates and counting colonies the following day. Results are shown as % bacterial killing, where 100% killing represents data derived from the group of bacteria incubated with cathelicidins only.

[3] = system: CRAMP; assay: Alexa 647-CRAMP binding to Affi-Gel HP beads, competition by HP compounds (flow cytometry); parameters: species or system mouse; settings: 20 μg/mL competitor, 0.5 μM Alexa 647-conjugated CRAMP, 1 h at room temperature, n = 4
Protocol: (§5) FIGURE 4 | 2-O-sulfated heparan compounds directly bind to CRAMP with high affinity. Alexa 647-conjugated CRAMP (0.5 μM) was incubated with Affi-Gel HP beads without or with 20 μg/mL of HP, NDS-HP, 2ODS-HP, or 6ODS-HP for 1 h at room temperature. CRAMP fluorescence associated with Affi-Gel HP beads was analyzed by flow cytometry. Results are shown as (A) % CRAMP binding and (B) mean fluorescence intensity (MFI) of CRAMP binding (n = 4, ***p < 0.001, ****p < 0.0001). ITC analyses for CRAMP binding to HP were performed at 25°C using a MicroCal iTC 200 titration calorimetry. The fitted heat curves of titrating CRAMP binding to (C) HP and (D) 2ODS-HP are shown.
(§6) Affi-Gel HP beads were washed and resuspended in PBS. Affi-Gel HP beads (20 μL) were incubated with 0.5 μM Alexa 647-labeled CRAMP without or with 20 μg/mL HP, chemically desulfated HP, or chemoenzymatically sulfated H for 1 h at room temperature. Affi-Gel HP beads were washed with PBS, and the Alexa 647-labeled CRAMP bound to them was assessed by flow cytometry.

[4] = system: LL-37; assay: Inhibition by glycosaminoglycans of S. aureus killing by LL-37; assay type: cell-based, human; settings: 5 μg/mL glycosaminoglycan, 1 μM LL-37, ~500 cfu USA300, phosphate buffer pH 7.4, 2 h at 37°C, n = 6
Protocol: as §2, §3, §4

[5] = system: CRAMP; assay: ITC of HP and 2ODS-HP binding to CRAMP; parameters: species or system mouse; settings: 25.0°C, 50 mM HEPS pH 7.4, 150 mM NaCl
Protocol: as §5
ITC of CRAMP binding to HP and modified HP was carried out at 25.0°C using a MicroCal iTC 200 titration calorimetry system (Malvern, UK). A stock solution of CRAMP was diluted to 12.5 μM in 50 mM HEPS, pH 7.4, 150 mM NaCl, and approximately 300 μL of this solution was loaded into the ITC cell and titrated with 25 μM of HP or 2ODS-HP in the same buffer. Briefly, titration injection of HP or 2ODS-HP consisted of a first injection of 0.4 μL followed by 18 consecutive injections of 2 μL of 0.8 s duration and with a 2.5 min interval between injections. […] The enthalpy change of binding (ΔH), the binding affinity, and the binding stoichiometry were determined.

[6] = system: CAP-18; assay: Inhibition by glycosaminoglycans of S. aureus killing by CAP-18; assay type: cell-based, rabbit; settings: 5 μg/mL glycosaminoglycan, 0.5 μM CAP-18, ~500 cfu USA300, phosphate buffer pH 7.4, 2 h at 37°C, n = 6
Protocol: as §2, §3, §4

[7] = system: CRAMP; assay: Inhibition by glycosaminoglycans of S. aureus killing by CRAMP; assay type: cell-based, mouse; settings: 5 μg/mL glycosaminoglycan, 0.5 μM CRAMP, ~500 cfu USA300, phosphate buffer pH 7.4, 2 h at 37°C, n = 6
Protocol: as §2, §3, §4, §1

[8] = Alexa 647-CRAMP binding to Affi-Gel HP beads, direct and with unlabeled peptides (flow cytometry); settings: 20-fold excess (5 μM) unlabeled peptide, 250 nM Alexa 647-labeled CRAMP, 1 h at room temperature, n = 3–4
Protocol: FIGURE 5 | Secondary structure of mature CRAMP is required for binding to heparan compounds. (A) Sequence and pI (in parentheses) of the 34 amino acid long mature CRAMP and four 10- or 20-mer peptides that span amino acids 4–13 (CR-1), 13–22 (CR-2), 24–33 (CR-3), or 4–23 (CR-4) of mature CRAMP. (B) Affi-Gel HP beads were incubated with 250 nM of Alexa 647-labeled CRAMP without or with 5 μM of unlabeled CRAMP, heat-treated CRAMP, CR-1, CR-2, CR-3, or CR-4 peptides for 1 h at room temperature. […] (C) ITC analyses of heat-treated CRAMP binding to HP. The fitted heat curve of titrating CRAMP binding to HP is shown. TEXT PRINTED IN THE PICTURE: (A) CRAMP: (10.0) | (A) CR-1: (9.6) | (A) CR-2: (10.6) | (A) CR-3: (5.9) | (A) CR-4: (10.4) DOUBTS OF THE COPYIST ABOUT THIS PICTURE: Panel A: the numbers in brackets after the peptide names are printed without any measure or unit in the picture, so they are given as printed, without a measure.
as §6

[9] = system: S. aureus USA300; assay: Bacteria live/dead staining (BaclightGreen / propidium iodide); assay type: cell-based, Staphylococcus aureus; settings: 0.5 μM CRAMP without or with 5 μg/mL compound, 30 min at room temperature, propidium iodide 10 μg/mL
Protocol: as §3
S. aureus USA300 was stained by BaclightGreen (Thermo Fisher) following the manufacturer’s instructions. Briefly, an overnight culture of S. aureus was resuspended in PBS and incubated with 100 μM BaclightGreen for 15 min at room temperature. […] Bacteria were mounted on glass slides and images were captured with a fluorescence microscope (Zeiss Axiovert 40 CFL). […]
Figure S1. A) CRAMP expression was measured in uninfected Wt corneas or Wt corneas isolated at 4 h post-S. aureus USA300 infection. […] Total RNA was purified from the corneal epithelium, and 1 ng of total RNA was analyzed by qRT-PCR for CRAMP or β-actin expression (n = 3, **p < 0.01). […] Bacterial killing was measured by plating serial dilutions onto TSA plates and counting colonies the following day. […] Bacteria were washed three times with buffer, incubated with 0.5 μM CRAMP for 2 h at 37°C, and % bacterial killing was determined by plating serial dilutions of samples (n = 4). […] Images were captured with a fluorescence microscope (Zeiss Axiovert 40 CFL). […]

[10] = system: S. aureus USA300; assay: Pre-incubation of S. aureus with glycosaminoglycans, washing, then killing by cathelicidin; assay type: cell-based, Staphylococcus aureus; settings: 5 μg/ml glycosaminoglycan pre-incubated with 500 cfu USA300 30 min at 37°C, washed three times, then 0.5 μM CRAMP 2 h at 37°C, n = 4
Protocol: Figure S1. A) CRAMP expression was measured in uninfected Wt corneas or Wt corneas isolated at 4 h post-S. aureus USA300 infection. Briefly, eyes were enucleated, corneas were dissected, and isolated corneas were incubated with 10 mg/ml dispase II overnight at 4°C to peel off the corneal epithelium. Total RNA was purified from the corneal epithelium, and 1 ng of total RNA was analyzed by qRT-PCR for CRAMP or β-actin expression (n = 3, **p < 0.01). […] Bacterial killing was measured by plating serial dilutions onto TSA plates and counting colonies the following day. Results are shown as % bacterial survival (n = 4). Figure S2. […] Bacterial killing (%) was enumerated by plating serial dilutions onto TSA plates and counting colonies the following day (n = 5). B) Effects of pre-incubating S. aureus with glycosaminoglycans on bacterial killing by cathelicidins were examined by incubating 500 cfu of USA300 without or with 5 μg/ml HS, HP, DS, or CS for 30 min at 37°C. Bacteria were washed three times with buffer, incubated with 0.5 μM CRAMP for 2 h at 37°C, and % bacterial killing was determined by plating serial dilutions of samples (n = 4). Figure S3. […] Images were captured with a fluorescence microscope (Zeiss Axiovert 40 CFL). Quantification of % dead bacteria (out of total bacteria in field) is shown at the bottom. […] S. aureus-associated CRAMP fluorescence was analyzed by flow cytometry. […]

Substance | Decrease of MFI of Alexa-labeled CRAMP binding to S. aureus compared to control ([1]; 5 μg/mL glycosaminoglycan, 2% paraformaldehyde-fixed S. aureus USA300, 1 h at room temperature, n = 3) | Reduction of proportion of CRAMP-bound bacteria (Alexa CRAMP binding, FACS density plots) compared to No GAG ([1]; 5 μg/ml glycosaminoglycan, fixed S. aureus USA300, 1 h at room temperature, representative plots) | Inhibition of S. aureus killing by SMAP-29 [2] | Inhibition of CRAMP binding to HP beads [3] | Reduction of mean fluorescence intensity (MFI) of CRAMP binding to HP beads compared to control [3] | Inhibition of S. aureus killing by LL-37 [4] | Heat changes on incubation with CRAMP (ITC) ([5]; 12.5 μM CRAMP titrated with 25 μM 2ODS-HP) | Inhibition of S. aureus killing by CAP-18 [6] | Inhibition of S. aureus killing by CRAMP [7] | Inhibition of Alexa CRAMP binding to HP beads by unlabeled peptide [8] [%] | Live (green) / dead (red) state of most bacteria [9] | Kd ([5]; 12.5 μM CRAMP in cell, titrated with 25 μM HP, read-out: Binding affinity for CRAMP binding to HP (ITC)) [nM] | Inhibition of bacterial killing by cathelicidins after pre-incubation with bacteria and washing away [10]
2-O-desulfated HP [2ODS-HP] | no effect | not | significantly inhibited the ability of HP to inhibit | 25% | not | significantly inhibited the ability of HP to inhibit | did not produce significant heat changes | significantly inhibited the ability of HP to inhibit | significantly inhibited the ability of HP to inhibit | – | – | – | –
CR-4: 20-mer peptide, amino acids 4–23 of mature CRAMP (LAGLLRKGGEKIGEKLKKIG; Cathelicidin antimicrobial peptide; UniProt P51437 138-157, looked up, fragment) | – | – | – | – | – | – | – | – | – | 34.7 | – | – | –
GLLRKGGEKIGEKLKKIGQKIKNFFQKLVPQPEQ [CRAMP] | – | – | – | – | – | – | – | – | – | 92.7 | dead | – | –
heparin [HP] | – | – | over 70% | over 75% | – | over 70% | – | over 70% | over 70% | – | – | 45.2 | did not inhibit
